Our source for the IC50 values is PubChem BioAssay AID624382 (Sanford-Burnham Center for Chemical Genomics, 2012).

For orientation: IC50 means the point on the concentration scale where inhibition reaches its midpoint.

Active and inactive are the calls of the source. No rule for the calls is given here.

This experiment deals with Small ubiquitin-related modifier 1 (Homo sapiens) (UniProt P63165). As to the kind of experiment: inhibitors of SUMO1 peptide binding, dose response, biochemical, fluorescence polarization, uHTS hits (AID 624382). (Fluorescence polarisation rises when a labelled molecule tumbles more slowly, as on binding a larger partner.)
Small ubiquitin-related modifier 1 (Homo sapiens), sequence (P63165 whole entry, looked up): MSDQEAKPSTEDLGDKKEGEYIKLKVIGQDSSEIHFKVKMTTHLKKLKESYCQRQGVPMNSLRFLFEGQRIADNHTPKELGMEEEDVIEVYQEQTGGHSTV
In the case of `C[c-]1[c-](C)[c-](C)[c-](C)[c-]1C.[Fe].c1cc2nccc(N3CCCC3)[c-]2c1` (stereo not drawn), the IC50 was 11.9 µM. As to `C=Cc1c(C)c2cc3[nH]c(cc4nc(cc5nc(cc1[nH]2)C(C)=C5CCC(=O)O)C(CCC(=O)O)=C4C)c(C)c3C=C`, the IC50 was > 66.6 µM (inactive). As to `CCN(CC)P(=O)(NC(=O)C(Cl)(Cl)Cl)N(CC)CC.[Cl-].[Cl-].[Cl-].[Nd+3]`, the IC50 is > 66.6 µM (inactive).
